Experimental data published in PMC6684685, “Evaluation of polydentate picolinic acid chelating ligands and an α-melanocyte-stimulating hormone derivative for targeted alpha therapy using ISOL-produced ^225Ac” (EJNMMI Radiopharmacy and Chemistry, 2019).
Read-outs that look alike come from different tables or passages of the source.

Columns and labels:
[1] = Stability of 225Ac complexes in human serum (competition, TLC); assay type: in vitro ADME; details: ambient temperature
Procedure: (§1) Varying TLC/iTLC plate systems were selected for different ligands based from results of positive and negative radiolabeling controls: • Method A, for [^225Ac(octapa)]^− and [^225Ac(CHXoctapa)]^−: iTLC-SG plates (Agilent, 2 cm × 10 cm, baseline at 1.5 cm), developed using 10 mM NaOH/9% NaCl solution. Under these conditions free ^225Ac^III remains at the baseline (Rf = 0), while the ^225Ac-ligand complex migrates upwards with the solvent (Rf > 0); or • Method B, for [^225Ac(bispa^2)]^+ and [^225Ac(macropa)]^+: aluminum-backed ultrapure silica gel 60 with 250 μm thickness TLC plates (Fisher, 2 cm × 10 cm, baseline at 1.5 cm), developed using 0.4 M sodium citrate (pH 4) with 10% methanol. Under these conditions free ^225Ac^III migrates with the solvent front (Rf = 1), while ^225Ac-ligand complex remains at the baseline (Rf = 0); (Comba et al. [2017]; Thiele et al. [2017]) or • Method C, for [^225Ac(DOTA)]^−: iTLC-SA plates (Agilent, 2 × 10 cm, baseline at 1.5 cm) and developed using 50 mM EDTA buffer, pH 4. Under these conditions free ^225Ac^III migrates with the solvent front (Rf = 1), while ^225Ac-ligand complex remains at the baseline (Rf = 0); or • Method D, for human serum stability (below): aluminum-backed ultrapure silica gel 60 with 250 um thickness TLC plates (Fisher, 2 cm × 10 cm, baseline at 1.5 cm), developed in 50 mM EDTA, pH 5. Under these conditions, chelate-bound ^225Ac remains at the baseline (Rf = 0), and any ^225Ac^III that has de-complexed from the chelate will travel with the solvent front (Rf = 1). Method D was validated by incubating “free” ^225Ac^III with human serum under analogous conditions to ensure all the activity eluted with the solvent front (Rf ~ 1).
To investigate the stabilities of the ^225Ac-complexes, a competition experiment was performed in the presence of excess human serum and the displacement of radioactivity from the chelator to serum proteins was tracked over the course of seven days. Endogenous metal-binding proteins in serum such as apo-transferrin and metallothionein can compete for and displace chelator-bound metal ions in vivo, preventing successful delivery of the radionuclide to the desired target. The ^225Ac-complexes were prepared using the radiolabeling protocols described above and added to an equal volume (170–180 μL) of human serum (stored at − 5 °C and thawed at ambient temperature). At varying time points (0.5 h to 7 days), small aliquots (1–5 μL) were spotted on iTLC plates using Methods B or D, described above. Representative TLC radio-chromatograms of a serum competition assay with ligand and control are presented in Additional file 1: Figures S2 and S3.

[2] = La(III) exchange competition assay, 50-fold excess La; assay type: physicochemical; details: 50-fold excess La^III, ambient temperature
Procedure: as §1
The stability of a radiometal-chelate complex is also often assessed by its ability to withstand transchelation in the presence of excess stable isotopes of the radiometal. Though this is an impossible experiment to perform with Ac since all Ac isotopes are unstable, lanthanum(III) has a similar ionic radius ([…], CN = 6–9) and charge to actinium(III) and is often considered a chemical surrogate to Ac^III. Using non-radioactive metal ions such as La^III as a competitor for ligand complexation is a straightforward method to probe the kinetic off-rate of a pre-formed Ac^III complex, since many ligands that bind Ac^III may also efficiently complex La^III. Herein, ^225Ac-complexes were prepared using the radiolabeling protocols described above and combined with La(NO3)3 (0.1 M, 50 M equivalents compared to the ligand) and allowed to react at ambient temperature. At varying time points (1 h – 7 d), aliquots of the competition reaction mixture (1–5 μL) were spotted on aluminum backed TLC plates and developed using the TLC methods described above.

[3] = 50-fold excess La^III, ref Thiele et al. [2017], cited from earlier work
[4] = human serum, n = 1, ref Thiele et al. [2017], cited from earlier work

Row | SMILES | % Stable ([1]; 1 h) | % Stable ([1]; 1 d) | % Stable ([1]; 3 d) | % Stable ([1]; 4 d) | % Stable ([1]; 7 d) | % Stable ([2]; 5 h) | % Stable ([1]; 4 h) | % Stable ([1]; 2 d) | % Stable ([2]; 1 h) | % Stable ([2]; 1 d) | % Stable ([2]; 2 d) | % Stable ([2]; 7 d) | further results
1 | O=C([O-])c1cccc(CN(CCN(Cc2cccc(C(=O)[O-])n2)CP(=O)([O-])[O-])CP(=O)([O-])[O-])n1.[225Ac+3] [[^225Ac(phospa)]^3−] | 81.6 ± 1.1% | 81.5 ± 0.2% | 80.2 ± 1.1% | 76.2 ± 0.1% | 77.1 ± 6.4% | 0% |  |  |  |  |  |  | 
2 | O=C([O-])CN1CCN(CC(=O)[O-])CCN(CC(=O)[O-])CCN(CC(=O)[O-])CC1.[225Ac+3] [[^225Ac(DOTA)]^−, reference compound] | 93.9 ± 4.5% | 90.9 ± 5.6% |  | 91.1 ± 6.1% | 84.7 ± 8.1% | 94.5 ± 3.5% | 94.4 ± 3.7% | 91.8 ± 5.6% | 95.2 ± 3.3% | 94.9 ± 2.9% | 86.2 ± 3.1% | 77.1 ± 3.6% | % Stable ([1]; 0.5 h): 92.4 ± 4.0%
3 | O=C([O-])CN(Cc1cccc(C(=O)[O-])n1)C1CCCCC1N(CC(=O)[O-])Cc1cccc(C(=O)[O-])n1.[225Ac+3] (centres unmarked) [[^225Ac(CHXoctapa)]^−] | 95.9 ± 1.0% | 97.0 ± 0.9% | 96.1 ± 1.5% | 96.7 ± 1.2% | 95.6 ± 1.6% | 81.8 ± 4.3% | 96.8 ± 1.7% | 96.7 ± 1.6% |  | 45.7 ± 3.1% | 26.5 ± 8.9% | 3.9 ± 0.6% | % Stable ([2]; 3 d): 18.1 ± 0.4%; % Stable ([2]; 6 d): 5.0 ± 0.4%
4 | O=C([O-])CN(CCN(CC(=O)[O-])Cc1cccc(C(=O)[O-])n1)Cc1cccc(C(=O)[O-])n1.[225Ac+3] [[^225Ac(octapa)]^−] | 97.9 ± 0.9% | 94.9 ± 1.2% | 94.9 ± 1.1% | 95.9 ± 1.9% | 92.9 ± 1.0% | 42.7 ± 0.3% | 96.9 ± 1.5% | 96.1 ± 1.0% | 78.9 ± 2.9% | 4.7 ± 1.5% | 6.1 ± 2.6% |  | 
5 | O=C([O-])c1cccc(CN2CCOCCOCCN(Cc3cccc(C(=O)[O-])n3)CCOCCOCC2)n1.[225Ac+3] [[^225Ac(macropa)]^+] |  |  |  |  |  |  |  |  |  |  |  |  | % Stable ([3]; 1 h): 95%; % Stable ([3]; 1 d): 93%; % Stable ([3]; 2 d): 92%; % Stable ([3]; 3 d): 91%; % Stable ([3]; 6 d): 93%; % Stable ([3]; 7 d column (footnote: 8 d time point)): 91^b %; % Stable ([3]; 7 d column (footnote: 8 d time point), listed as [^225Ac(macropa)]^−): 91%; % Stable ([4]; 0.5 h): 96%; % Stable ([4]; 1 h): 95%; % Stable ([4]; 4 h): 93%; % Stable ([4]; 1 d): 90%; % Stable ([4]; 2 d): 93%; % Stable ([4]; 3 d): 90%; % Stable ([4]; 7 d): 90%
